Laboratory results as given in patent publication US4921861A, “Pharmaceutical compositions” (BASF Aktiengesellschaft, priority 1987, dated 1990).
Entries after “also recorded” stand apart in the source; their conditions may differ. Read-outs that look alike come from different tables or passages of the source.

Assays:
rats [1] = experiment: conflict test: anxiolytic (punished) and sedative (unpunished) effect on water consumption; type: in vivo, Male CFY rats; details: for water uptake, without electric current / water uptake, with electric current: 0.5 hour; for minimal effective dose: Rattus norvegicus, sc, s.c.
Procedure: (§1) The pharmacological activity of 3-amino-4-ethylthio-quinoline is substantiated by the following tests. As test compound 3-amino-4-ethylthio-quinoline-hydrochloride (referred to further as "Compound A") is used.
Anxiolytic and sedative effects are studied according to the following conflict test. […] On the other hand, sedative effect can be observed but in a dose of 25 mg/kg. Thus the ratio of the anxiolytic and sedative doses amounts to 25,000: 2.5=10,000. The same value of chlordiazepoxide is 10:0.1=100. It appears that in the case of Compound A the dissociation between the sedative and anxiolytic doses is extremely high.
The essential strategy for measuring the anti-anxiety effect of a drug is to check its activity in a conflict situation. We elicit a rewarded response, then suppress that response by punishing it when it occurs and the anti-anxiety effect is measured by the drug-induced increase in punished responding, whereas the sedative effect is measured by the drug-induced decrease of unpunished responding.
A rat, deprived of food for 96 hours and supplied with water ad libitum, drinks about 7 ml water during the 4th day of food deprivation, but needs 35 ml water daily when supplied with dry food [for review see Knoll, J. J., Neural Transm. 59, 163-194 (1984)]. This means that when we circuit the drinking tube and the grid floor of the cage and the rat is regularly shocked by trying to drink, the very hungry animal, which cannot eat without drinking, is maximally forced to overcome the hindrance. This is a sensitive test to check the anti-anxiety effect of a compound.
Male CFY rats, weighing 230-250 g, fed with standard food pellets and supplied with tap water ad libitum, were kept under controlled standard environmental conditions (room temperature between 22°-24° C.) in groups of ten for two weeks until used in the experiment. The rats kept in single cages during starvation were deprived of food for 96 hours and supplied with tap water ad libitum before the experiment.
Another aspect of the selection of the animals for the experiment was their visible physical fitness and normal activity after starvation. Less than 10 percent of the rats were excluded from the experiment because of insufficient physical fitness.
A clear Plexiglass box (39×27×12 cm) with a stainless-steel grid floor supplied with a tray for the food pellets and with a drinking tube was used for the experiment. The grid floor, the drinking tube and an electric stimulator (Grass S48) were connected and electric shocks in this circuit were delivered for 10 s duration with 20 s intervals. The parameters of the current (100V; 25 ohm; 7.5 ms; 5 Hz) were empirically selected using those electric shocks which inhibited the water consumption of the very hungry rats to one third of the control (unpunished) level.
The rats spend one hour in the apparatus after 96 hours of food deprivation. The very hungry rats eat 5-6 g of food pellets during the first hour of the feeding period after the long starvation. […] In the punished situation the consumption was reduced to less than 3 ml.
The drugs were administered parenterally in doses of 0.5 ml/100 g body weight. We refrained from the oral administration of the compounds because of the long term food deprivation.

inactine narcosis time = experiment: narcosis potentiating effect, inactine narcosis; type: in vivo, rats
Text: as §1
(§2) The narcosis potentiating effect of Compound A (on rats) is very strong if inactine is used.

[2] = system: spasms induced by tetracor; experiment: spasmolytic effect on spasms induced by tetracor; type: in vivo
Text: as §1

rats [3] = experiment: algolytic test; type: in vivo
Text: as §1
Compound A is ineffective in the algolytic test (on rats).

calypsol narcosis time = experiment: narcosis time of non-barbiturate phenyclidine derivative (calypsol); type: in vivo, rats
spontaneous motility = experiment: spontaneous motility; type: in vivo; details: rats
Text: as §1

benzodiazepine receptors = experiment: displacement of diazepame from benzodiazepine receptors; type: binding
[4] = system: one-way conditioned avoidance; experiment: one-way conditioned avoidance test (screening test I); type: in vivo; details: 100 mg/kg p.o.
Text: as §1

metabolism = experiment: influence on metabolism; type: in vivo; details: rats, 100 mg/kg p.o.
Text: as §1

acute toxicity (LD50) = details: rat, in vivo, rats
Text: as §1

[5] = system: hexobarbital narcosis time; experiment: narcosis potentiating effect, hexobarbital narcosis; type: in vivo, rats; details: compared with inactine
Text: as §1, §2

"hot-plate" test = type: in vivo
Text: as §1

[6] = system: unconditioned avoidance reflex; experiment: modified jumping test; type: in vivo; details: 50 and 100 mg p.o.
Text: as §1

[7] = system: two-way conditioned avoidance reflex; experiment: shuttle box (two-way conditioned avoidance reflex); type: in vivo; details: rats, 100 mg/kg p.o.
Text: as §1

Compound: CNC1=Nc2ccc(Cl)cc2C(c2ccccc2)=[N+]([O-])C1 [chlordiazepoxide, reference compound]
- ratio of the anxiolytic and sedative doses (rats [1]): 100

Compound: CCSc1c(N)cnc2ccccc12 [3-amino-4-ethylthio-quinoline]
- narcosis potentiating effect (inactine narcosis time; general statement): particularly potent anxiolytic and narcosis potentiating effect
- anticonvulsive effect ([2]; general statement): devoid of sedative and anticonvulsive effects
- anxiolytic effect (rats [1]; general statement): particularly potent anxiolytic; also recorded: highly selective anxiolytic effect
- sedative effect (rats [1]; general statement): devoid of sedative

Compound: CCSc1c(N)cnc2ccccc12.Cl [Compound A, 3-amino-4-ethylthio-quinoline-hydrochloride]
- ED500 (dose which causes a five-fold prolongation of the inactine narcosis time) (inactine narcosis time; p.o., rats): 3.4 mg/kg
- narcosis potentiating effect (inactine narcosis time; rats, inactine): very strong
- ED500 (dose which causes a five-fold prolongation of the inactine narcosis time) (inactine narcosis time; s.c., rats): 3.5 mg/kg
- spasmolytic effect on spasms induced by tetracor ([2]; 25 and 100 mg/kg p.o.): no spasmolytic effect
- activity in the algolytic test (rats [3]): ineffective
- effect on narcosis time of calypsol (calypsol narcosis time): does not lengthen the narcosis time
- inhibition of spontaneous motility (spontaneous motility; 25 mg/kg): inactive
- inhibition of spontaneous motility (spontaneous motility; 50 and 100 mg/kg p.o.): moderately in a dose-independant manner
- displacement of diazepame from the benzodiazepine receptors (benzodiazepine receptors): displaces diazepame from the benzodiazepine receptors
- inhibiting effect in one-way conditioned avoidance test [4]: very weak inhibiting effect
- influence on metabolism (metabolism): does not influence metabolism
- LD50 (acute toxicity (LD50); sc): 320 mg/kg
- LD50 (acute toxicity (LD50); oral): 420 mg/kg
- prolongation of hexobarbital narcosis time [5]: to a much weaker extent
- ED50 ("hot-plate" test; oral): 49 mg/kg
- ED50 ("hot-plate" test; sc): 40 mg/kg
- inhibition of the unconditioned avoidance reflex [6]: does not inhibit
- water uptake, without electric current (rats [1]; 0.25 mg/kg s.c., 10 animals): 6.1 ± 0.46 mL
- water uptake, with electric current (rats [1]; 0.25 mg/kg s.c., 10 animals, p < 0.05): 3.3 ± 0.45 mL
- water uptake, without electric current (rats [1]; 5 mg/kg s.c., 10 animals): 7.2 ± 0.37 mL
- water uptake, without electric current (rats [1]; 10 mg/kg s.c., 10 animals): 6.9 ± 0.43 mL
- water uptake, without electric current (rats [1]; 25 mg/kg s.c., 7 animals, p < 0.01): 3.4 ± 0.60 mL
- water uptake, with electric current (rats [1]; 2.5 γ/kg s.c., 10 animals, p < 0.05): 3.4 ± 0.43 mL
- water uptake, with electric current (rats [1]; 5 γ/kg s.c., 10 animals, p < 0.001): 4.1 ± 0.66 mL
- water uptake, with electric current (rats [1]; 10 γ/kg s.c., 10 animals): 2.7 ± 0.33 mL
- water uptake, with electric current (rats [1]; 25 γ/kg s.c., 10 animals): 2.8 ± 0.38 mL
- minimal effective dose (rats [1]; with electric current, read-out: dose significantly increasing water consumption punished by trains of electric shock (anxiolytic dose)): 0.0025 mg/kg
- minimal effective dose (rats [1]; without electric current, read-out: dose at which sedative effect can be observed): 25 mg/kg
- anxiolytic effect (rats [1]; general statement): extremely active anxiolytic agent
- ratio of the anxiolytic and sedative doses (rats [1]): 10,000
- inhibition of learning ability [7]: inhibits learning ability on rats significantly
